Results: patent US20160220569A1, “CDK4/6 Inhibitor Dosage Formulations For The Protection Of Hematopoietic Stem And Progenitor Cells During Chemotherapy” (G1 Therapeutics, Inc., priority 2015, published 2016)
Several values for one entry are separate records, joined by “and”; a condition that tells them apart may be missing. Identical values can stand only once. Like-named read-outs stand apart in the source and are kept apart here.

Test: Topotecan PK following Compound 1 infusion
Format: in vivo, human
Settings: human, plasma, intravenous
Procedure: Blood samples were obtained prior to dosing, at the end of the 30-minute infusion (EOI), and at 0.5, 1, 1.5, 2, 2.5, 4, 6, 8, and 24 hours after the end of infusion. Analysis of plasma concentration versus time data for calculation of standard pharmacokinetic (PK) parameters following intravenous infusion administration was conducted using Phoenix WinNonlin version 6.3 using a nominal infusion duration and scheduled blood sampling times. In Cohort 2 there were 3 subjects who received 1.25 mg/m^2 of topotecan once daily on Days 1 to 5. In Cohort 3 there were 4 subjects who received 0.75 mg/m^2 of topotecan once daily on Days 1 to 5.

`CC[C@@]1(O)C(=O)OCc2c1cc1n(c2=O)Cc2cc3c(CN(C)C)c(O)ccc3nc2-1.Cl` [topotecan, (S)-10-[(dimethylamino)methyl]-4-ethyl-4,9-dihydroxy-1H-pyrano[3′,4′:6,7]indolizino[1,2-b]quinoline-3,14(4H,12H)-dione monohydrochloride] showed a Cmax (Topotecan 0.75 mg/m^2 (Cohort 3) with Compound 1 200 mg/m^2, Day 1, Mean, read-out: Cmax) of 0.0273 µg/mL, a half-life (Topotecan 0.75 mg/m^2 (Cohort 3) with Compound 1 200 mg/m^2, Day 1, Mean, read-out: t½ (converted)) of 4.33 h and an AUC (Topotecan 0.75 mg/m^2 (Cohort 3) with Compound 1 200 mg/m^2, Day 1, Median, read-out: AUC24.5) of 0.0891 µg·h/mL. For the same molecule, the AUC(0-inf) (Topotecan 0.75 mg/m^2 (Cohort 3) with Compound 1 200 mg/m^2, Day 1, Median, read-out: AUCinf (converted)) was 90.8 ng·h/mL and 0.198 µM·h, the AUC (Topotecan 0.75 mg/m^2 (Cohort 3) with Compound 1 200 mg/m^2, Day 1, Median, read-out: AUCx5 (converted)) was 992 nM·h and the Cmax (Topotecan 0.75 mg/m^2 (Cohort 3) with Compound 1 200 mg/m^2, Day 1, Median, read-out: Cmax) was 0.0264 µg/mL. For the same molecule, the half-life (Topotecan 0.75 mg/m^2 (Cohort 3) with Compound 1 200 mg/m^2, Day 1, Median, read-out: t½ (converted)) was 4.3 h, the AUC (Topotecan 0.75 mg/m^2 (Cohort 3) with Compound 1 200 mg/m^2, Day 1, individual subjects, read-out: AUC24.5) was 0.0835 µg·h/mL and the AUC(0-inf) (Topotecan 0.75 mg/m^2 (Cohort 3) with Compound 1 200 mg/m^2, Day 1, individual subjects, read-out: AUCinf (converted)) was 84.8 ng·h/mL and 0.185 µM·h. For the same molecule, the AUC (Topotecan 0.75 mg/m^2 (Cohort 3) with Compound 1 200 mg/m^2, Day 1, individual subjects, read-out: AUCx5 (converted)) was 927 nM·h, the half-life (Topotecan 0.75 mg/m^2 (Cohort 3) with Compound 1 200 mg/m^2, Day 1, individual subjects, read-out: t½ (converted)) was 4.32 h and the AUC (Topotecan 0.75 mg/m^2 (Cohort 3) with Compound 1 200 mg/m^2, Day 4, Mean, read-out: AUCτ (converted)) was 92.4 ng·h/mL and 0.202 µM·h. For the same molecule, the Cmax (Topotecan 0.75 mg/m^2 (Cohort 3) with Compound 1 200 mg/m^2, Day 4, Mean, read-out: Cmax) was 0.0245 µg/mL, the half-life (Topotecan 0.75 mg/m^2 (Cohort 3) with Compound 1 200 mg/m^2, Day 4, Mean, read-out: t½ (converted)) was 4.78 h and the AUC (Topotecan 0.75 mg/m^2 (Cohort 3) with Compound 1 200 mg/m^2, Day 4, Median, read-out: AUCτ (converted)) was 91.7 ng·h/mL and 0.2 µM·h. The Cmax (Topotecan 0.75 mg/m^2 (Cohort 3) with Compound 1 200 mg/m^2, Day 4, Median, read-out: Cmax) was 0.0245 µg/mL, the half-life (Topotecan 0.75 mg/m^2 (Cohort 3) with Compound 1 200 mg/m^2, Day 4, Median, read-out: t½ (converted)) was 4.7 h and the AUC (Topotecan 0.75 mg/m^2 (Cohort 3) with Compound 1 200 mg/m^2, Day 4, individual subjects, read-out: AUCτ (converted)) was 83.7 ng·h/mL and 0.183 µM·h. For the same molecule, the Cmax (Topotecan 0.75 mg/m^2 (Cohort 3) with Compound 1 200 mg/m^2, Day 4, individual subjects, read-out: Cmax) was 0.0264 µg/mL, the half-life (Topotecan 0.75 mg/m^2 (Cohort 3) with Compound 1 200 mg/m^2, Day 4, individual subjects, read-out: t½ (converted)) was 4.63 h and the AUC (Topotecan 1.25 mg/m^2 (Cohort 2) with Compound 1 200 mg/m^2, Day 1, Mean, read-out: AUC24.5) was 0.175 µg·h/mL. The AUC(0-inf) (Topotecan 1.25 mg/m^2 (Cohort 2) with Compound 1 200 mg/m^2, Day 1, Mean, read-out: AUCinf (converted)) was 180 ng·h/mL and 0.392 µM·h, the AUC (Topotecan 1.25 mg/m^2 (Cohort 2) with Compound 1 200 mg/m^2, Day 1, Mean, read-out: AUCx5 (converted)) was 1970 nM·h and the Cmax (Topotecan 1.25 mg/m^2 (Cohort 2) with Compound 1 200 mg/m^2, Day 1, Mean, read-out: Cmax) was 0.0637 µg/mL. For the same molecule, the half-life (Topotecan 1.25 mg/m^2 (Cohort 2) with Compound 1 200 mg/m^2, Day 1, Mean, read-out: t½ (converted)) was 4.93 h, the AUC (Topotecan 1.25 mg/m^2 (Cohort 2) with Compound 1 200 mg/m^2, Day 1, Median, read-out: AUC24.5) was 0.159 µg·h/mL and the AUC(0-inf) (Topotecan 1.25 mg/m^2 (Cohort 2) with Compound 1 200 mg/m^2, Day 1, Median, read-out: AUCinf (converted)) was 162 ng·h/mL and 0.355 µM·h. It also gave an AUC (Topotecan 1.25 mg/m^2 (Cohort 2) with Compound 1 200 mg/m^2, Day 1, Median, read-out: AUCx5 (converted)) of 1770 nM·h, a Cmax (Topotecan 1.25 mg/m^2 (Cohort 2) with Compound 1 200 mg/m^2, Day 1, Median, read-out: Cmax) of 0.0577 µg/mL and a half-life (Topotecan 1.25 mg/m^2 (Cohort 2) with Compound 1 200 mg/m^2, Day 1, Median, read-out: t½ (converted)) of 4.92 h. For the same molecule, the half-life (Topotecan 1.25 mg/m^2 (Cohort 2) with Compound 1 200 mg/m^2, Day 1, individual subjects, read-out: t½ (converted)) was 4.78 h, the AUC (Topotecan 1.25 mg/m^2 (Cohort 2) with Compound 1 200 mg/m^2, Day 4, Mean, read-out: AUCτ (converted)) was 171 ng·h/mL and 0.375 µM·h and the Cmax (Topotecan 1.25 mg/m^2 (Cohort 2) with Compound 1 200 mg/m^2, Day 4, Mean, read-out: Cmax) was 0.0596 µg/mL. The AUC (Topotecan 1.25 mg/m^2 (Cohort 2) with Compound 1 200 mg/m^2, Day 4, Median, read-out: AUCτ (converted)) was 158 ng·h/mL and 0.345 µM·h, the Cmax (Topotecan 1.25 mg/m^2 (Cohort 2) with Compound 1 200 mg/m^2, Day 4, Median, read-out: Cmax) was 0.0418 µg/mL and the half-life (Topotecan 1.25 mg/m^2 (Cohort 2) with Compound 1 200 mg/m^2, Day 4, Median, read-out: t½ (converted)) was 5.39 h. For the same molecule, the AUC (Topotecan 1.25 mg/m^2 (Cohort 2) with Compound 1 200 mg/m^2, Day 4, individual subjects, read-out: AUCτ (converted)) was 158 ng·h/mL and 0.345 µM·h, the half-life (Topotecan 1.25 mg/m^2 (Cohort 2) with Compound 1 200 mg/m^2, Day 4, individual subjects, read-out: t½ (converted)) was 5.39 h and the AUC (Topotecan […]^2 (Cohort 1) with Compound 1 200 mg/m^2, Day 1, Mean, read-out: AUC24.5) was 0.15 µg·h/mL. For the same molecule, the AUC (Topotecan […]^2 (Cohort 1) with Compound 1 200 mg/m^2, Day 1, Mean, read-out: AUCx5 (converted)) was 1660 nM·h, the Cmax (Topotecan […]^2 (Cohort 1) with Compound 1 200 mg/m^2, Day 1, Mean, read-out: Cmax) was 0.0695 µg/mL and the half-life (Topotecan […]^2 (Cohort 1) with Compound 1 200 mg/m^2, Day 1, Mean, read-out: t½ (converted)) was 4.33 h. For the same molecule, the AUC (Topotecan […]^2 (Cohort 1) with Compound 1 200 mg/m^2, Day 1, Median, read-out: AUC24.5) was 0.15 µg·h/mL, the AUC (Topotecan […]^2 (Cohort 1) with Compound 1 200 mg/m^2, Day 1, Median, read-out: AUCx5 (converted)) was 1660 nM·h and the Cmax (Topotecan […]^2 (Cohort 1) with Compound 1 200 mg/m^2, Day 1, Median, read-out: Cmax) was 0.0695 µg/mL. It also gave a half-life (Topotecan […]^2 (Cohort 1) with Compound 1 200 mg/m^2, Day 1, Median, read-out: t½ (converted)) of 4.33 h, an AUC (Topotecan […]^2 (Cohort 1) with Compound 1 200 mg/m^2, Day 1, individual subjects, read-out: AUC24.5) of 0.13 µg·h/mL and an AUC (Topotecan […]^2 (Cohort 1) with Compound 1 200 mg/m^2, Day 1, individual subjects, read-out: AUCx5 (converted)) of 1440 nM·h. For the same molecule, the half-life (Topotecan […]^2 (Cohort 1) with Compound 1 200 mg/m^2, Day 1, individual subjects, read-out: t½ (converted)) was 4.56 h, the Cmax (Topotecan […]^2 (Cohort 1) with Compound 1 200 mg/m^2, Day 4, Mean, read-out: Cmax) was 0.0893 µg/mL and the half-life (Topotecan […]^2 (Cohort 1) with Compound 1 200 mg/m^2, Day 4, Mean, read-out: t½ (converted)) was 4.87 h. For the same molecule, the Cmax (Topotecan […]^2 (Cohort 1) with Compound 1 200 mg/m^2, Day 4, Median, read-out: Cmax) was 0.0893 µg/mL, the half-life (Topotecan […]^2 (Cohort 1) with Compound 1 200 mg/m^2, Day 4, Median, read-out: t½ (converted)) was 4.87 h and the half-life (Topotecan […]^2 (Cohort 1) with Compound 1 200 mg/m^2, Day 4, individual subjects, read-out: t½ (converted)) was 5.11 h. It also gave an AUC(0-inf) (topotecan 0.75 mg/m^2 (Cohort 3) after Compound 1 200 mg/m^2, Day 1, mean, read-out: AUCinf averaged) of 0.0944 µg·h/mL, a Cmax (topotecan 0.75 mg/m^2 (Cohort 3) after Compound 1 200 mg/m^2, Day 1, mean, read-out: Cmax averaged) of 0.0273 µg/mL and a half-life (topotecan 0.75 mg/m^2 (Cohort 3) after Compound 1 200 mg/m^2, Day 1, mean, read-out: Half-lives averaged (converted)) of 4.33 h. The Cmax (topotecan 0.75 mg/m^2 (Cohort 3) after Compound 1 200 mg/m^2, Day 4, mean, read-out: Cmax averaged) was 0.0245 µg/mL, the AUC(0-inf) (topotecan 1.25 mg/m^2 (Cohort 2) after Compound 1 200 mg/m^2, Day 1, mean, read-out: AUCinf averaged) was 0.18 µg·h/mL and the Cmax (topotecan 1.25 mg/m^2 (Cohort 2) after Compound 1 200 mg/m^2, Day 1, mean, read-out: Cmax averaged) was 0.0637 µg/mL. It also gave a half-life (topotecan 1.25 mg/m^2 (Cohort 2) after Compound 1 200 mg/m^2, Day 1, mean, read-out: Half-lives averaged (converted)) of 4.93 h, a Cmax (topotecan 1.25 mg/m^2 (Cohort 2) after Compound 1 200 mg/m^2, Day 4, mean, read-out: Cmax averaged) of 0.0596 µg/mL and an AUC(0-inf) (topotecan […]^2 (Cohort 1) after Compound 1 200 mg/m^2, Day 1, mean, read-out: AUCinf averaged) of 0.152 µg·h/mL. It also gave a Cmax (topotecan […]^2 (Cohort 1) after Compound 1 200 mg/m^2, Day 1, mean, read-out: Cmax averaged) of 0.0695 µg/mL, a half-life (topotecan […]^2 (Cohort 1) after Compound 1 200 mg/m^2, Day 1, mean, read-out: Half-lives averaged (converted)) of 4.33 h and a Cmax (topotecan […]^2 (Cohort 1) after Compound 1 200 mg/m^2, Day 4, mean, read-out: Cmax averaged) of 0.0893 µg/mL. For the same molecule, the half-life (read-out: t½ (converted)) was 5.45 h.
